Laboratory results published in patent US8734863B2, “Bioactive fraction of Petiveria alliacea, pharmaceutical composition containing same, and combination with immunostimulants for treating cancer” (Pontificia Universidad Javeriana, priority 2009, dated 2014).

What was measured:
tumour cell line NB4 = assay: Chromatin condensation and nuclear fragmentation, hematoxylin-eosine and DAPI staining; type: cell-based, human; details: NB4, 24 h; S3 at 31.2 μg/mL
Experimental: Hematoxylin-eosine and DAPI (4′,6-diamidino-2-phenylindole, Sigma) stained cells were monitored under microscope to evaluated the type of cell death induced by the S3 fraction. In brief, cells treated with S3 fraction for 24 h at 37° C. under humidified atmosphere and 5% CO2, were plated onto microscope slides by cytocentrifugation (Vybra cytospin, Japan) for 5 min at 500 rpm, fixed with ethanol and stained with hematoxylin (2 min) and eosin (45 seconds). Excess dye was removed with ethanol (3 washes) and microscope slides were monitored and photographed under a light microscope (Olympus CH30, Japan) at a magnification of 100×. For DAPI staining, cells plated on glass cover slides (13 mm/-E) previously collagen-precoated (6-10 μg/cm2) at a density of 5×10^4 cells for 16 h, were treated with S3 fraction at 37° C. under humidified atmosphere and 5% CO2 for 24 h. Subsequently, cells were washed (PBS) and fixed with paraformaldehyde (2% in PBS) for 30 min at 4° C. After washing twice with PBS-BSA (1%), cells were incubated in cold acetone (1 min); washed (1% PBS-BSA) and incubated for 5 min with DAPI 300 nM (Sigma, St. Louis, Mo.). Slides with prolong antifade kit (Molecular Probes) were observed under a fluorescence microscope (Olympus, Japan).

[1] = system: human peripheral blood mononuclear cells (PBMC); assay: Growth of human mononuclear cells, MTT; type: cell-based; details: PBMC with or without phytohemagglutinin, 30 h, F4 250 to 1.9 μg/ml
Experimental: For assays in normal cells, human peripheral blood mononuclear cells (PBMC) from healthy volunteers were separated by density gradient centrifugation (Ficoll-Hypaque, Amersham, Biosciences). PBMC were suspended in RPMI-1640 supplemented medium (10% FBS, 2 mM L-glutamine, 100 U/ml penicillin, 100 μg/ml streptomycin, 0.01 M Hepes) and incubated under humidified environment at 37° C. and 5% CO2.
Human PBMC were seeded (2×10^5 cells/well) on 96-well plates and incubated with or without phytohemagglutinin (PHA, GibcoBRL) for 12 h. Afterwards, PBMC were treated with F4 fraction (250 to 1.9 μg/ml), or vincristine for 30 h. After treatment cells were centrifuged, F4 fraction removed and lastly cells were carefully washed 3 times (PBS) before adding the MTT. Next 12 μl of MTT 12 mM [3-(4,5-dimethylthiazol-2-yl)-2,5-diphenyl tetrazolium bromide] (Molecular Probes, Eugene, Oreg., USA) in PBS was added to each well and incubated for 4 h at 37° C. Formazan crystals were dissolved with SDS-HCl 0.01M. MTT results were read at 540 nm in a Multiskan MCC/340 (LabSystems).

tumor cell line A375 = assay: Cell cycle distribution, propidium iodide flow cytometry; type: cell-based, human; details: A375, F4 at 31.2 μg/mL; 18% in no treatment cells
Experimental: After treatment, cells were washed and fixed with ethanol (ice-cold 70%) during 18 h. After fixing, cells were suspended in PBS 1×, 100 U/ml RNase, 50 μg/ml of propidium iodide (Sigma, St. Louis, Mo.) and incubated at room temperature for 30 min. Cell DNA content was measured by flow cytometry using a FACScalibur, (Becton Dickinson, Fullerton, Calif. For cytometric data 50,000 cellular events were collected per sample and analyzed with Cell Quest software (Becton Dickinson). Cell cycle distribution percentages are calculated by Modfit LT software. FACScalibur calibration is performed with the DNA QC Particle Kit (Becton Dickinson).

effect over growth of normal mononuclear cells [1] | Structure (SMILES) | type of cell death, hematoxylin-eosine staining (tumour cell line NB4) | G2 phase accumulation (tumor cell line A375)
– | CN[C@@H]1C[C@H]2O[C@@](C)([C@@H]1OC)n1c3ccccc3c3c4c(c5c6ccccc6n2c5c31)C(=O)NC4 [staurosporine] | nuclear fragmentation and DNA fragmentation | –
lack of effect | CC[C@]1(O)C[C@H]2CN(CCc3c([nH]c4ccccc34)[C@@](C(=O)OC)(c3cc4c(cc3OC)N(C=O)[C@H]3[C@@](O)(C(=O)OC)[C@H](OC(C)=O)[C@]5(CC)C=CCN6CC[C@]43[C@@H]65)C2)C1 [vincristine] | – | ~80%
